Consider ten molecules from ChEMBL document CHEMBL1201862, “PubChem BioAssay data set” (2004).

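Method: 48-hour compound exposure of cells in 96-well plates, five concentrations, linear interpolation of endpoints. GI50 marks 50% less growth.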 Calls of active or inactive are those of the source. No stated cut-off is given here; in the data, active = GI50 up to about 1.1 µM and inactive = higher.

Test systems include A498; CCRF-CEM; HCC 2998; HCT-116; HCT-15; HL-60; HOP-62; K562; MCF7; MDA-MB-231; MDA-MB-435; MOLT-4; OVCAR-3; OVCAR-8; PC-3; SF-295; SN12C; SR; SW-620; U-251.
Assay in all cases: growth of human tumour cells (NCI), 48 h

With `COc1cc(O)cc(O)c1C(=O)CC(Cl)(Cl)Cl`, the GI50 was > 100 µM (inactive) with A498; > 100 µM (inactive) in the assay on CCRF-CEM; > 100 µM (inactive) with HCC 2998; > 100 µM (inactive) in the assay on HCT-116; over 100 µM with HCT-15; > 100 µM (inactive) in the assay with HL-60. The GI50 in the assay with HOP-62, in the assay on K562, with MCF7, in the assay with MDA-MB-231, in the assay with MDA-MB-435 and in the assay on MOLT-4 was > 100 µM (inactive) throughout. Besides, the GI50 in the assay with OVCAR-3, with OVCAR-8, in the assay on PC-3, with SF-295, in the assay on SN12C and in the assay with SR was > 100 µM (inactive) throughout. In addition, the GI50 in the assay on SW-620 and with U-251 was > 100 µM (inactive) in each case.
For `COc1c(C)c(OC)c2c(c1O)[C@@H]1[C@@H]3Cc4c(OC)c(C)c(OC)c(O)c4[C@H](CNC(=O)c4cnc5ccccc5n4)N3[C@@H](C#N)[C@H](C2)N1C`, the GI50 was 0.00232 µM (active) with A498; 0.000798 µM (active) with CCRF-CEM; 0.00327 µM (active) in the assay on HCC 2998; 0.00222 µM (active) with HCT-116; 0.00826 µM with HCT-15; 0.00153 µM (active) with HL-60. Further, the GI50 is 0.00429 µM (active) in the assay on HOP-62; 0.000977 µM (active) in the assay with K562; 0.00135 µM (active) in the assay on MCF7; 0.00326 µM (active) with MDA-MB-231; 0.00255 µM (active) in the assay with MDA-MB-435; 0.000689 µM (active) with MOLT-4. The GI50 in the assay with OVCAR-3 was 0.00214 µM (active); with OVCAR-8, 0.00283 µM (active); in the assay on PC-3, 0.00433 µM (active); in the assay on SF-295, 0.00296 µM (active); in the assay with SN12C it was 0.00329 µM (active); in the assay on SR, 0.000182 µM (active). Moreover, the GI50 was 0.002 µM (active) in the assay with SW-620 and 0.00135 µM (active) in the assay on U-251.
On to `CO/N=[N+](\[O-])NC(C)C`, for which the GI50 in the assay with A498 was > 100 µM (inactive); in the assay on CCRF-CEM, > 100 µM (inactive); in the assay on HCC 2998, > 100 µM (inactive); in the assay on HCT-116, > 100 µM (inactive); in the assay on HCT-15 it was over 100 µM; with HL-60, > 100 µM (inactive). Also, the GI50 in the assay on HOP-62, in the assay on K562, in the assay with MCF7, in the assay on MDA-MB-231, in the assay with MDA-MB-435 and in the assay with MOLT-4 was > 100 µM (inactive) each time. Further, the GI50 with OVCAR-3, in the assay with OVCAR-8, in the assay with PC-3, with SF-295, in the assay with SN12C and with SR was > 100 µM (inactive) throughout. Besides, the GI50 in the assay on SW-620 and in the assay with U-251 was > 100 µM (inactive) each time.
In the case of `COCCn1cnc2c(Cl)nc(Nc3ccccc3)nc21`, the GI50 with A498 is 59.4 µM (inactive); in the assay on CCRF-CEM, 19.3 µM (inactive); with HCC 2998, 17.3 µM (inactive); with HCT-116 it was 27.7 µM (inactive); in the assay with HCT-15 it was 22.9 µM; with HL-60, 22.9 µM (inactive). Moreover, the GI50 is 59.7 µM (inactive) in the assay on HOP-62; 25.9 µM (inactive) in the assay with K562; 36.4 µM (inactive) in the assay on MCF7; 27.7 µM (inactive) with MDA-MB-231; 18.1 µM (inactive) in the assay on MDA-MB-435; 23.3 µM (inactive) in the assay with MOLT-4. For the same molecule, the GI50 in the assay with OVCAR-3 is 16.5 µM (inactive); in the assay with OVCAR-8, 23.9 µM (inactive); with PC-3 it was 22.3 µM (inactive); in the assay with SF-295, > 100 µM (inactive); in the assay on SN12C it was 26.4 µM (inactive); in the assay on SR, 26.2 µM (inactive). The GI50 in the assay on SW-620 was 32.3 µM (inactive); with U-251, 32.7 µM (inactive).
Take `CC(C)/C=C1\CCC(CN(C)C)C1=O` (stereo not drawn): the GI50 is 6.87 µM (inactive) in the assay with A498; 1.63 µM (inactive) with CCRF-CEM; 7.03 µM (inactive) in the assay with HCC 2998; 0.871 µM (active) in the assay on HCT-116; 2.13 µM in the assay on HCT-15; 1.09 µM (active) in the assay with HL-60. The GI50 in the assay on HOP-62 was 18.4 µM (inactive); with K562, 0.893 µM (active); in the assay with MCF7, 0.313 µM (active); in the assay on MDA-MB-231, 1.42 µM (inactive); in the assay with MDA-MB-435, 1.6 µM (inactive); with MOLT-4, 1.07 µM (active). The GI50 is 2.82 µM (inactive) with OVCAR-3; 2 µM (inactive) with OVCAR-8; 4.66 µM (inactive) with PC-3; 16.6 µM (inactive) in the assay on SF-295; 2.21 µM (inactive) in the assay with SN12C; 0.951 µM (active) in the assay with SR. Further, the GI50 in the assay with SW-620 was 0.656 µM (active); in the assay on U-251, 18.3 µM (inactive).
Regarding `CCOc1ccc(Nc2nc(N)nc(N)c2N=O)cc1`, the GI50 in the assay with A498 was > 100 µM (inactive); in the assay with CCRF-CEM, > 100 µM (inactive); in the assay on HCC 2998 it was 55.2 µM (inactive); with HCT-116 it was > 100 µM (inactive); in the assay with HCT-15, 37.7 µM; with HL-60 it was > 100 µM (inactive). The GI50 was 50.1 µM (inactive) with HOP-62; 53.5 µM (inactive) in the assay with K562; 38.4 µM (inactive) in the assay on MCF7; 40 µM (inactive) with MDA-MB-231; 52.4 µM (inactive) with MDA-MB-435; 17.6 µM (inactive) in the assay on MOLT-4. For the same molecule, the GI50 is 24.6 µM (inactive) in the assay on OVCAR-3; 51.1 µM (inactive) in the assay with OVCAR-8; 28.4 µM (inactive) in the assay on PC-3; > 100 µM (inactive) with SF-295; 56.6 µM (inactive) with SN12C; 71.1 µM (inactive) in the assay on SR. In addition, the GI50 with SW-620 is 91.2 µM (inactive); in the assay with U-251 it was > 100 µM (inactive).
As to `CN(C)CCn1c(=O)c2ccc(NCCN3CCNCC3)c3c(=O)c4ccccc4n(c1=O)c23`, the GI50 in the assay on A498 is 4.15 µM (inactive); in the assay with CCRF-CEM it was 0.207 µM (active); in the assay with HCC 2998 it was 1.97 µM (inactive); in the assay with HCT-116 it was 0.692 µM (active); with HCT-15 it was 1.53 µM; with HL-60, 2.59 µM (inactive). For the same molecule, the GI50 was 4.06 µM (inactive) in the assay on HOP-62; 0.231 µM (active) in the assay on K562; 0.743 µM (active) in the assay on MCF7; 2.56 µM (inactive) with MDA-MB-231; 2.86 µM (inactive) in the assay on MDA-MB-435; 0.0294 µM (active) in the assay on MOLT-4. Besides, the GI50 is 5.05 µM (inactive) in the assay on OVCAR-3; 1.91 µM (inactive) in the assay with OVCAR-8; 1.79 µM (inactive) with PC-3; 1.02 µM (active) in the assay on SF-295; 1.47 µM (inactive) in the assay with SN12C; 0.0776 µM (active) in the assay on SR. In addition, the figures for the GI50 in the assay on SW-620 and in the assay on U-251 were 0.378 µM (active) and 1.11 µM (active), respectively.
Consider `O=C1Nc2ccccc2N/C1=C\C(=O)C(F)F`, for which the GI50 in the assay on A498 was > 100 µM (inactive); in the assay with CCRF-CEM it was > 100 µM (inactive); in the assay on HCC 2998, > 100 µM (inactive); in the assay with HCT-116 it was > 100 µM (inactive); with HCT-15, over 100 µM; in the assay on HL-60, > 100 µM (inactive). The GI50 in the assay with HOP-62, in the assay with K562, in the assay with MCF7, in the assay with MDA-MB-231, in the assay with MDA-MB-435 and in the assay on MOLT-4 was > 100 µM (inactive) each time. In addition, the GI50 with OVCAR-3, in the assay on OVCAR-8, with PC-3, in the assay on SF-295, with SN12C and in the assay on SR was > 100 µM (inactive) throughout. In addition, the GI50 in the assay with SW-620 and in the assay with U-251 was > 100 µM (inactive) in each case.
Consider `Cc1c2c(Cl)c3c(c(Cl)c2c(C)c2c(Cl)c4c(c(Cl)c12)C(c1ccccc1)(c1ccccc1)C4(c1ccccc1)c1ccccc1)C(c1ccccc1)(c1ccccc1)C3(c1ccccc1)c1ccccc1`, for which the GI50 was > 100 µM (inactive) in the assay on A498; > 100 µM (inactive) in the assay with CCRF-CEM; > 100 µM (inactive) in the assay with HCC 2998; > 100 µM (inactive) in the assay on HCT-116; over 100 µM in the assay on HCT-15; > 100 µM (inactive) in the assay on HOP-62. Further, the GI50 in the assay on K562, with MCF7, in the assay on MDA-MB-231, with MDA-MB-435, with MOLT-4 and with OVCAR-3 was > 100 µM (inactive) in each case. Besides, the GI50 in the assay with OVCAR-8, in the assay with PC-3, in the assay on SF-295, in the assay with SN12C, in the assay on SR and with SW-620 was > 100 µM (inactive) in each case. The GI50 with U-251 is > 100 µM (inactive).
In the case of `N#CC(C#N)=Cn1c(=S)[nH]c2ccc([N+](=O)[O-])cc21`, the GI50 in the assay with A498, with CCRF-CEM, with HCC 2998, in the assay on HCT-116, in the assay on HL-60 and in the assay on HOP-62 was > 100 µM (inactive) in each case. The GI50 in the assay on K562 was > 100 µM (inactive); with MCF7, > 100 µM (inactive); in the assay on MDA-MB-231, 68.7 µM (inactive); with MDA-MB-435, > 100 µM (inactive); in the assay with MOLT-4 it was > 100 µM (inactive); with OVCAR-3 it was > 100 µM (inactive). Besides, the GI50 with OVCAR-8, with PC-3, in the assay on SF-295, in the assay on SN12C, in the assay on SR and with SW-620 was > 100 µM (inactive) throughout. Further, the GI50 with U-251 was > 100 µM (inactive).
